From patent publication US11130769B2 (Prelude Therapeutics Incorporated, priority 2018, dated 2021)
Values joined by “and” are separate entries in the source; they are usually repeats but may differ in a detail not shown here. Equal entries are not always repeated. Where two headings read alike, the source gives them in different places.

Tests used:
[1] = molecular target: MCL-1 (Homo sapiens (Human), UniProt Q07820); assay: Cell free Mcl-1:Bim affinity assay (fluorescence polarization competition); assay type: binding; details: 15 nM MCL-1, 5 nM FITC-Bim, 1 hour at room temperature; class symbols; read-out: BIM_Ki
How it was run: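 Compounds competed with FITC-labelled Bim peptide (5 nM) for MCL-1 (15 nM) in HEPES/NaCl buffer with 1% DMSO, 1 h at room temperature. Fluorescence polarization (535 nm emission) gave % inhibition versus DMSO and positive controls; IC50 from 10-point curves, converted to Ki by the Nikolovska-Coleska equation.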

[2] = tested on: H929 cells; assay: Cell viability assay (H929 10 FBS); assay type: cell-based; details: Homo sapiens, NCI-H929, 24 hours, read-out: H929_10FBS IC50
How it was run: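 H929 cells, 4000/well, in RPMI 1640 with 10% FBS, sodium pyruvate, HEPES and glucose were exposed to compound 24 h at 37 °C. Viability read as luminescence after 30-60 min at RT with CellTiter-Glo or ATPlite 1 Step.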

[3] = rcm bond, DCE
[4] = from C=CCN(C(=O)OC(C)(C)C)[C@H](C)C(=O)NS(=O)(=O)c1ccc2c(c1)N(C[C@@H]1CC[C@H]1[C@@H](O)C=C)C[C@@]1(CCCc3cc(Cl)ccc31)CO2, rcm bond, 16-membered ring, Zhan Catalyst 1B, DCE, 1.8 mM, 40.0 °C, 3.0 h
[5] = from C=CC(C)OC(C)(C)C(=O)NS(=O)(=O)c1ccc2c(c1)N(C[C@@H]1CC[C@H]1[C@@H](O)C=C)C[C@@]1(CCCc3cc(Cl)ccc31)CO2, rcm bond, 16-membered ring, Zhan catalyst, DCE, 2.1 mM, 45.0 °C, 2.0 h

Sequence of MCL-1 (Q07820 whole entry): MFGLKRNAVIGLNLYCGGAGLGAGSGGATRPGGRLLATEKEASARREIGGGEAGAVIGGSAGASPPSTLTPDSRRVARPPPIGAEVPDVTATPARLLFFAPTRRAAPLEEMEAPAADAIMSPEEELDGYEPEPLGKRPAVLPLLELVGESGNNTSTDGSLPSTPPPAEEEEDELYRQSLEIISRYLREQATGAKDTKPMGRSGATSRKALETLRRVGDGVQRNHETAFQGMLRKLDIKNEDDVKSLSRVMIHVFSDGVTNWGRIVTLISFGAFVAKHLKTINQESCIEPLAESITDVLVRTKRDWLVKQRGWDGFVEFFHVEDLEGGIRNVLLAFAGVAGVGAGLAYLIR

Ki [1] [nM] | IC50 [2] [nM] | SMILES | also measured
– | – | C[C@@H]1C(=O)NS(=O)(=O)c2ccc3c(c2)N(C[C@@H]2CC[C@H]2[C@@H](O)C=CCN1C(=O)OC(C)(C)C)C[C@@]1(CCCc2cc(Cl)ccc21)CO3 | ring closure, isolated yield [4]: 36%
– | – | C[C@@H]1C(=O)NS(=O)(=O)c2ccc3c(c2)N(C[C@@H]2CC[C@H]2[C@@H](O)/C=C/CN1C(=O)OC(C)(C)C)C[C@@]1(CCCc2cc(Cl)ccc21)CO3 | ring closure, isolated yield [4]: 44%
1 to 100 | > 1000 | COC(=O)N[C@@H]1/C=C/COC(C)(C)C(=O)NS(=O)(=O)c2ccc3c(c2)N(C[C@@H]2CC[C@H]21)C[C@@]1(CCCc2cc(Cl)ccc21)CO3 [Example 251, Methyl N-[(3R,6R,7R,8E,22S)-6′-Chloro-12,12-dimethyl-13,15,15-trioxo-spiro[11,20-dioxa-15-thia-1,14-diazatetracyclo[14.7.2.03,6.019,24]pentacosa-8,16(25),17,19(24)-tetraene-22,1′-tetralin]-7-yl]carbamate] | ring closure, yield after HPLC ([3]; from C=CCOC(C)(C)C(=O)NS(=O)(=O)c1ccc2c(c1)N(C[C@@H]1CC[C@H]1[C@@H](C=C)NC(=O)OC)C[C@@]1(CCCc3cc(Cl)ccc31)CO2, 16-membered ring, Hoveyda-Grubbs II, 1.17 mM, 40.0 °C): 18.4%
– | – | CC1/C=C/[C@H](O)[C@@H]2CC[C@H]2CN2C[C@@]3(CCCc4cc(Cl)ccc43)COc3ccc(cc32)S(=O)(=O)NC(=O)C(C)(C)O1 (some centres unmarked) | ring closure, isolated yield [5]: 62.4%
– | – | CO[C@@H]1C=CCNC(=O)NS(=O)(=O)c2ccc3c(c2)N(C[C@@H]2CC[C@H]21)C[C@@]1(CCCc2cc(Cl)ccc21)CO3 | ring closure, yield after HPLC ([3]; from C=CCNC(=O)NS(=O)(=O)c1ccc2c(c1)N(C[C@@H]1CC[C@H]1[C@@H](C=C)OC)C[C@@]1(CCCc3cc(Cl)ccc31)CO2, 15-membered ring, Hoveyda-Grubbs II, 1.0 mM, 80.0 °C, 16.0 h): 7.2% and 31%
1 to 100 | > 1000 | O=C1CC/C=C/COC[C@@H]2CC[C@H]2CN2C[C@@]3(CCCc4cc(Cl)ccc43)COc3ccc(cc32)S(=O)(=O)N1 [Example 99, (3R,6R,10E,23S)-6′-Chloro-16,16-dioxo-spiro[8,21-dioxa-16-thia-1,15-diazatetracyclo[15.7.2.03,6.020,25]hexacosa-10,17(26),18,20(25)-tetraene-23,1′-tetralin]-14-one] | ring closure, isolated yield (from C=CCCC(=O)NS(=O)(=O)c1ccc2c(c1)N(C[C@@H]1CC[C@H]1COCC=C)C[C@@]1(CCCc3cc(Cl)ccc31)CO2, rcm bond, 17-membered ring, Hoveyda-Grubbs II, DCM, 16.7 mM, 24.0 h): 51%
– | – | CO[C@@H]1C=CCN(C(=O)OC(C)(C)C)CC2(CCC2)C(=O)NS(=O)(=O)c2ccc3c(c2)N(C[C@@H]2CC[C@H]21)C[C@@]1(CCCc2cc(Cl)ccc21)CO3 | ring closure, isolated yield (from C=CCN(CC1(C(=O)NS(=O)(=O)c2ccc3c(c2)N(C[C@@H]2CC[C@H]2[C@@H](C=C)OC)C[C@@]2(CCCc4cc(Cl)ccc42)CO3)CCC1)C(=O)OC(C)(C)C, rcm bond, 17-membered ring, Hoveyda-Grubbs II, DCE, 2.6 mM, 16.0 h): 80%
– | – | CC(C)(C)OC(=O)N1CC=C[C@H](O)[C@@H]2CC[C@H]2CN2C[C@@]3(CCCc4cc(Cl)ccc43)COc3ccc(cc32)S(=O)(=O)NC(=O)C12CCC2 | ring closure, isolated yield (from C=CCN(C(=O)OC(C)(C)C)C1(C(=O)NS(=O)(=O)c2ccc3c(c2)N(C[C@@H]2CC[C@H]2[C@@H](O)C=C)C[C@@]2(CCCc4cc(Cl)ccc42)CO3)CCC1, rcm bond, 16-membered ring, Zhan Catalyst II (resin supported), DCE, 1.0 mM, 60.0 °C, 3.0 h): 93%
– | – | O=C1NS(=O)(=O)c2ccc3c(c2)N(C[C@@H]2CC[C@H]2[C@@H](O)C=CCOC12CCC2)C[C@@]1(CCCc2cc(Cl)ccc21)CO3 | ring closure, isolated yield (from C=CCOC1(C(=O)NS(=O)(=O)c2ccc3c(c2)N(C[C@@H]2CC[C@H]2[C@@H](O)C=C)C[C@@]2(CCCc4cc(Cl)ccc42)CO3)CCC1, rcm bond, 16-membered ring, Hoveyda-Grubbs II, DCE, 1.46 mM, 40.0 °C, 2.0 h): 66.3%
< 1 | > 1000 | O=C1Cc2cncc(c2)OC[C@@H]2CC[C@H]2CN2C[C@@]3(CCCc4cc(Cl)ccc43)COc3ccc(cc32)S(=O)(=O)N1 [Example 104, (3R,6R,24S)-6′-Chloro-17,17-dioxo-spiro[8,22-dioxa-17-thia-1,11,16-triazapentacyclo[16.7.2.19,13.03,6.021,26]octacosa-9(28),10,12,18(27),19,21(26)-hexaene-24,1′-tetralin]-15-one] | ring closure, isolated yield (from NS(=O)(=O)c1ccc2c(c1)N(C[C@@H]1CC[C@H]1COc1cncc(CC(=O)O)c1)C[C@@]1(CCCc3cc(Cl)ccc31)CO2, amide bond, 16-membered ring, EDCI/DMAP, DCM/DMF 9:1, 12.0 mM, 16.0 h): 28%
– | – | CC1/C=C\[C@H](O)[C@@H]2CC[C@H]2CN2C[C@@]3(CCCc4cc(Cl)ccc43)COc3ccc(cc32)S(=O)(=O)NC(=O)C(C)(C)O1 (some centres unmarked) | ring closure, isolated yield [5]: 15.2%
< 1 | < 500 | CN1CCN(CCNC(=O)O[C@H]2/C=C/COC(C)(C)C(=O)NS(=O)(=O)c3ccc4c(c3)N(C[C@@H]3CC[C@H]32)C[C@@]2(CCCc3cc(Cl)ccc32)CO4)CC1 [Example 149, [(3R,6R,7S,8E,22S)-6′-Chloro-12,12-dimethyl-13,15,15-trioxo-spiro[11,20-dioxa-15-thia-1,14-diazatetracyclo[14.7.2.03,6.019,24]pentacosa-8,16,18,24-tetraene-22,1′-tetralin]-7-yl] N-[2-(4-methylpiperazin-1-yl)ethyl]carbamate] | –
< 1 | < 500 | CN(C(=O)O[C@H]1/C=C/COC(C)(C)C(=O)NS(=O)(=O)c2ccc3c(c2)N(C[C@@H]2CC[C@H]21)C[C@@]1(CCCc2cc(Cl)ccc21)CO3)[C@@H]1CCOC1 [Example 64, [(3R,6R,7S,8E,22S)-6′-Chloro-12,12-dimethyl-13,15,15-trioxo-spiro[11,20-dioxa-15-thia-1,14-diazatetracyclo[14.7.2.03,6.019,24]pentacosa-8,16,18,24-tetraene-22,1′-tetralin]-7-yl] N-methyl-N-[(3R)-tetrahydrofuran-3-yl]carbamate] | –
< 1 | < 500 | CC1(C)OC/C=C/[C@H](OC(=O)NCCc2cccnc2)[C@@H]2CC[C@H]2CN2C[C@@]3(CCCc4cc(Cl)ccc43)COc3ccc(cc32)S(=O)(=O)NC1=O [Example 178, [(3R,6R,7S,8E,22S)-6′-Chloro-12,12-dimethyl-13,15,15-trioxo-spiro[11,20-dioxa-15λ^6-thia-1,14-diazatetracyclo[14.7.2.0^3,6.0^19,24]pentacosa-8,16,18,24-tetraene-22,1′-tetralin]-7-yl] N-[2-(3-pyridyl)ethyl]carbamate] | –
– | – | CC1(C)OC/C=C/[C@](C)(O)[C@@H]2CC[C@H]2CN2C[C@@]3(CCCc4cc(Cl)ccc43)COc3ccc(cc32)S(=O)(=O)NC1=O | ring closure, yield after HPLC ([3]; from C=CCOC(C)(C)C(=O)NS(=O)(=O)c1ccc2c(c1)N(C[C@@H]1CC[C@H]1[C@@](C)(O)C=C)C[C@@]1(CCCc3cc(Cl)ccc31)CO2, 16-membered ring, Zhan catalyst, 1.6 mM, 45.0 °C, 2.0 h): 3.3%
< 1 | < 500 | CC(C)NC(=O)O[C@H]1/C=C/COC(C)(C)C(=O)NS(=O)(=O)c2ccc3c(c2)N(C[C@@H]2CC[C@H]21)C[C@@]1(CCCc2cc(Cl)ccc21)CO3 [Example 181, [(3R,6R,7S,8E,22S)-6′-Chloro-12,12-dimethyl-13,15,15-trioxo-spiro[11,20-dioxa-15-thia-1,14-diazatetracyclo[14.7.2.03,6.019,24]pentacosa-8,16,18,24-tetraene-22,1′-tetralin]-7-yl] N-isopropylcarbamate] | –
< 1 | < 500 | CN(C)C(=O)O[C@H]1/C=C/COC(C)(C)C(=O)NS(=O)(=O)c2ccc3c(c2)N(C[C@@H]2CC[C@H]21)C[C@@]1(CCCc2cc(Cl)ccc21)CO3 [Example 34, [(3R,6R,7S,8E,22S)-6′-Chloro-12,12-dimethyl-3,5,5-trioxo-spiro[11,20-dioxa-15-thia-1,14-diazatetracyclo[14.7.2.03,6.019,24]pentacosa-8,16,18,24-tetraene-22,1′-tetralin]-7-yl] N,N-dimethylcarbamate] | –
< 1 | < 500 | CN[C@H]1CCN(C(=O)O[C@H]2/C=C/COC(C)(C)C(=O)NS(=O)(=O)c3ccc4c(c3)N(C[C@@H]3CC[C@H]32)C[C@@]2(CCCc3cc(Cl)ccc32)CO4)C1 [Example 163, [(3R,6R,7S,8E,22S)-6′-Chloro-12,12-dimethyl-13,15,15-trioxo-spiro[11,20-dioxa-15-thia-1,14-diazatetracyclo[14.7.2.03,6.019,24]pentacosa-8,16,18,24-tetraene-22,1′-tetralin]-7-yl] (3S)-3-(methylamino)pyrrolidine-1-carboxylate] | –
1 to 100 | > 1000 | COC(=O)N1C/C=C/[C@@H](OC)[C@@H]2CC[C@H]2CN2C[C@@]3(CCCc4cc(Cl)ccc43)COc3ccc(cc32)S(=O)(=O)NC(=O)[C@H]1C [Example 134, Methyl (3R,6R,7R,8E,12R,22S)-6′-Chloro-7-methoxy-12-methyl-13,15,15-trioxo-spiro[20-oxa-15-thia-1,11,14-triazatetracyclo[14.7.2.03,6.019,24]pentacosa-8,16,18,24-tetraene-22,1′-tetralin]-11-carboxylate] | –
